From patent publication US11351178B2, “Selective HDAC6 inhibitors” (ITALFARMACO S.P.A., priority 2017, dated 2022) come the findings set out here.

The test system of data set [1] is CT26 tumor. Description: CT-26 murine model, single agents and combination with anti PD-1 (FIG. 3). It is filed as in vivo, BALB/c mice. The following applies: for CT-26 tumor growth/progression, single agent: p.o. 50 mg/Kg daily. How it is done: FIG. 3: HDAC6 inhibitors reduces CT-26 tumor growth in vivo and their activity can be improved by combined treatment with anti PD-1 antibody. Statistics was evaluated at day 30 by Student's t test. *, P<0.05; **, P<0.01; ***, P<0.001. See text for further details. […] Adult BALB/c mice were injected s.c. with 1×10^6 CT26 tumor cells (diluted to 100 ul with phosphate-buffered saline). One week later, mice were given daily compounds 8 and 10 p.o. at 50 mg/Kg and/or injected with anti-PD1 antibody at 10 mg/Kg. At time of sacrifice, spleens were taken to analyze ex vivo, the tumor immune response. Spleen cells were stimulated with a mixture of CT-26 tumor specific peptides recognized in the context of both MHC I and MHC II. Thus, using this ex vivo stimulation, a specific tumor response mediated by CD4 and CD8 T cells can be detected.

The nature of data set [2]: Pharmacokinetics after single intravenous and oral administration to the mouse. The following applies: for AUCtot / Cmax / Tmax: Os, dose 5.2 mg/kg; for T1/2 / Vd: i.v.; for bioavailability: po, 5.2 mg/kg.
Experimental: Plasma levels and main pharmacokinetic parameters of test compounds were evaluated after single intravenous and oral administration to the mouse.
The formulations were prepared in a mixture of DMSO/PEG400/H2O. Blood was collected at the following sampling times: 5, 10, 15, 30 minutes, 1, 2, 4 and 6 hours after administration. Plasma samples (100 μL) were deproteinized by addition of 1% formic acid in ACN, then vortex mixed and centrifuged. For each sample, an aliquot of the supernatant was collected and diluted with water, filtered with 0.45 μm regenerated cellulose filter and analysed by LC-MS/MS. Plasma levels of the test compounds were calculated on a calibration curve prepared in the range 0.5-200 ng/mL.
Pharmacokinetic parameters were calculated on the mean plasma concentration curve using the software Kinetica™ v.

By Cmax is commonly meant the highest concentration seen after dosing. The Tmax is the time at which the peak concentration occurs. One may read the bioavailability as the share of a dose that reaches the circulation, judged against a reference dose that is usually intravenous. A low value points to poor availability.

Molecules are shown by their SMILES.

With `Cn1c(Sc2ccc(C(=O)NO)cc2)nnc1-c1cccs1` [comp. 10, N-hydroxy-4-((4-methyl-5-(thiophen-2-yl)-4H-1,2,4-triazol-3-yl)thio)benzamide], the “CT-26 tumor growth inhibition, combination with anti PD-1 antibody” value in data set [1] (compound p.o. 50 mg/Kg plus anti-PD1 antibody 10 mg/Kg) is reported as “further improves tumor growth inhibition”. Moreover, the “CT-26 tumor growth/progression, single agent” value in data set [1] is listed as “significantly reduce CT-26 tumor progression”. Also, in data set [2], the AUCtot is 123 ng·h/mL, the Cmax is recorded as 144 ng/mL, the time to peak (Tmax) came to 15 min and the T1/2 came out at 78 min. Further, the Vd in data set [2] is reported as 20.5 L/kg. In data set [2] (in vivo), this compound showed a bioavailability of 25.8%.

With `O=C(NO)c1ccc(Cn2nnnc2-c2cccs2)cc1` [comp. 8, N-hydroxy-4-((5-(thiophen-2-yl)-1H-tetrazol-1-yl)methyl)benzamide], the “CT-26 tumor growth/progression, single agent” value in data set [1] is “significantly reduce CT-26 tumor progression”. Also, in data set [2], the AUCtot is 94 ng·h/mL, the Cmax was found to be 238 ng/mL, the Tmax stood at 4.8 min and the T1/2 is 60 min. Further, the Vd in data set [2] was 15.3 L/kg. Further, the bioavailability in data set [2] (plasma) turned out to be 18.5%.
